# Key:
# Akt3 = Akt3 (Homo sapiens, UniProt Q9Y243); assay: Akt3 inhibition (no method described)
# [1] = tested on: patient-derived ATL cells; assay: ATL patient-derived cell viability; format: cell-based; conditions: various concentrations, FIG. 1B
# Method: (§1) HUT 102 cells and patient-derived ATL cells were treated with various concentrations of mJJ64C (Compound 17) or mJJ64 (Compound 1). Cell viability was determined.
# survivin = survivin gene expression in HUT102 cells (RT-PCR); format: cell-based; conditions: at 2 uM and above, FIG. 2
# Method: (§2) HUT102 cells were treated with different concentrations of Compound 17 (0.5 uM, 1 uM, 2 uM and 4 uM). Expression of b-cat, c-myc, and survivin were evaluated using RT-PCR.
# b-cat = b-cat gene expression in HUT102 cells (RT-PCR); format: cell-based; conditions: at 2 uM and above, FIG. 2
# Method: as §2
# c-myc = c-myc gene expression in HUT102 cells (RT-PCR); format: cell-based; conditions: at 2 uM and above, FIG. 2
# Method: as §2
# HUT102 cells = assay: HUT102 cell viability; format: cell-based; conditions: various concentrations, FIG. 1A
# Method: as §1
# Sequence of Akt3 (Q9Y243 whole entry): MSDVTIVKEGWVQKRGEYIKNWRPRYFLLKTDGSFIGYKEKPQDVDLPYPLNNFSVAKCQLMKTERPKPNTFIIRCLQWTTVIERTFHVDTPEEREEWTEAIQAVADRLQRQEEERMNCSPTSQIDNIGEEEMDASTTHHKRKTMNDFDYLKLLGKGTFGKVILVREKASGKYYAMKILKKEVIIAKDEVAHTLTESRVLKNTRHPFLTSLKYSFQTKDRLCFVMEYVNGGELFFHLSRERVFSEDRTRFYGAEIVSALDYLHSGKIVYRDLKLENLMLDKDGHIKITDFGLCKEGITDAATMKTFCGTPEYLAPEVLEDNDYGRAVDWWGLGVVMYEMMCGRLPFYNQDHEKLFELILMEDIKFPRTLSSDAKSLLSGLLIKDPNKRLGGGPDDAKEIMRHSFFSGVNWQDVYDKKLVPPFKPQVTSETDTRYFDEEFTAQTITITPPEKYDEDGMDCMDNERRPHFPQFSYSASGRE
structure (smiles),measurement,setting,value
"O=C(Nc1ccc(Nc2ccncc2)cc1)c1ccc(Nc2ccnc3ccc([N+](=O)[O-])cc23)cc1 [Compound 1, 4-[(6-nitroquinolin-4-yl)amino]-N-[4-(pyridin-4-ylamino)phenyl]benzamide]",Akt3 activity,Akt3,selectively inhibits Akt3 activity
same,cell viability,[1],reduce cell viability
O=C(Nc1cccc(Nc2ccncc2)c1)c1cccc(Nc2ccnc3ccc(F)cc23)c1 [Compound 17],expression of survivin,survivin,significantly inhibits
same,expression of b-cat,b-cat,significantly inhibits
same,expression of c-myc,c-myc,significantly inhibits
O=C(O)c1ccc2nccc(Nc3ccc(C(=O)Nc4ccc(Nc5ccncc5)cc4)cc3)c2c1 [Compound 18],cell viability,HUT102 cells,reduce cell viability

# From patent publication US20230201188A1, “COMPOSITIONS AND METHODS FOR TREATING LEUKEMIA” (Augusta University Research Institute, Inc., priority 2020, published 2023)
